Results taken from patent US11827624B2, “Covalent immune recruiter compounds for immune cell recognition and associated uses” (McMaster University, priority 2020, dated 2023).

System: PSMA+HEK cells
Experiment: Luminescence ADCC reporter (CD16α activation) assay with mmAb
Type: cell-based, human
Conditions: antibody 10^−7-10^−9 M
Procedure: Covalent vs. non-covalent antibody recruitment were compared in functional immune assays. Activation of NK cell CD16α immune receptors was assessed via luminescence based ADCC assays. ADCC was quantified using the ADCC Reportor Bioassay kit (Promega G7010). All ADCC induced luminescence was measured on a SpectraMax i3 plate reader (Molecular Devices). The human IgG isotype control used was purchased from Jackson ImmunoResearch (009-000-003). The human IgG1 monoclonal anti-DNP antibody (mAb) was purchased from Acrobiosystems (DNP-M2). Human IgG from serum was purchased from Innovative Research ([…]1000MG). Anti-DNP depleted serum was made from human IgG from serum (Innovative Research). For PSMA competition controls, 2-PMPA was purchased from Sigma (SML1612). Hek-293T (PSMA+/−) cell lines were generously given by Dr. Cyril Barinka (Institute of Biotechnology CAS, Czech Republic). Ultra low IgG FBS was purchased from Fischer Scientific (A3381901). RPMI-1640 was purchased as a powder from Fischer Scientific (31800089) and resuspended. DMEM was purchased as a powder from Fischer Scientific (12800082) and resuspended. Pen/Strep was purchased from Fischer Scientific (15140-122). FBS was purchased from Fischer Scientific (12484-028). Zeocin was purchased from Fischer Scientific (R25001). HEK-PSMA cells were cultured in DMEM media with 2 mM L-glut, 1% Pen/Strep, 10% FBS, 50 ug/mL Zeocin. HEK cells were cultured in DMEM media with 2 mM L-glut, 1% Pen/Strep, 10% FBS.
Preparation of antibody-CIR/ARM stocks were mixed overnight prior to addition to the ADCC plate. In the case of mmAb and mAb, incubation was carried out at 600 nM antibody and 1.2 μM CIR or ARM. In the case of IgG from serum, incubation was completed at 230 μM antibody and 8.7 μM CIR or ARM. In all cases, DMSO was kept close to 1%. After the overnight incubation, a dilution series was completed on the antibody-CIR/ARM stocks in RPMI (1% DMSO). […] 75 μL of Bio-Glo Luciferase Assay Reagent was added to each well, and luminescence was quantified using the SpectraMax i3 plate reader. […]

O=C(O)CC[C@H](NC(=O)N[C@@H](CCCCNC(=O)NCCOCCOCCOCCOCCOCCOCCOCCOC(=O)n1cnc(CCNC(=O)CNc2ccc([N+](=O)[O-])cc2[N+](=O)[O-])c1)C(=O)O)C(=O)O [CIR 3]
CD16α based target immune recognition: robust target immune recognition
